Columns and labels:
lipoamide = compound: NC(=O)CCCCC1CCSS1 [lipoamide]; assay: thermal stability z-score vs DMSO; higher = more thermally stabilized by treatment; settings: HeLa, lipoamide concentration 100 µM
Procedure: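 Cellular thermal proteome profiling in HeLa cells. Cells were treated with 100 µM lipoamide for 1 h, with or without 1 mM arsenate for a further 1 h, then heated to ten temperatures (37-66.3 °C), and soluble protein was quantified by TMT mass spectrometry relative to 0.1% DMSO controls. The thermal stability score (sum of log2 fold changes minus the abundance score) was transformed to a z-score; mean of n = 3 experiments.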

potassium arsenate = compound: O=[As]([O-])(O)O.[K+] [potassium arsenate]; assay: as above; settings: HeLa; arsenate concentration 1 mM
Procedure: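 Cellular thermal proteome profiling in HeLa cells treated with 1 mM arsenate for 1 h (DMSO pretreatment), heated to ten temperatures (37-66.3 °C). Soluble protein was quantified by TMT mass spectrometry relative to DMSO controls; the thermal stability score was transformed to a z-score; mean of n = 3 experiments.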

[1] = arsenate co-treatment: 1 mM arsenate 1 h
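Further: each temperature applied for 3 min, abundance score taken as mean log2 fold change at the two lowest temperatures, z-score obtained by mean subtraction and division by SD.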

Sequence of UniProt Q96DH6 (Q96DH6 whole entry): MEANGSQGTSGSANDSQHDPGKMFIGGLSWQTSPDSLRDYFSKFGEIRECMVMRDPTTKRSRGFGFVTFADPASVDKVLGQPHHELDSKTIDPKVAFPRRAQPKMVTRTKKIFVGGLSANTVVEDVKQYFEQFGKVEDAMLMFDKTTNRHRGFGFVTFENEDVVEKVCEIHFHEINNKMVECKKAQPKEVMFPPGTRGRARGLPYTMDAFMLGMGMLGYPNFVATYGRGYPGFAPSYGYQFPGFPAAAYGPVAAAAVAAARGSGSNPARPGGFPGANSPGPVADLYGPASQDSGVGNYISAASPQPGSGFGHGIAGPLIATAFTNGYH
Sequence of UniProt Q8IXL7 (Q8IXL7 whole entry): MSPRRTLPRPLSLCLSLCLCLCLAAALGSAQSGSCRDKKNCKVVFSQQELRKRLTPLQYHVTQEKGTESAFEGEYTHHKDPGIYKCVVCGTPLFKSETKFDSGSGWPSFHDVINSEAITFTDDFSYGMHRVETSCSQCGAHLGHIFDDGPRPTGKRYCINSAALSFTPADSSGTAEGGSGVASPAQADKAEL
Sequence of UniProt Q13615 (Q13615 whole entry): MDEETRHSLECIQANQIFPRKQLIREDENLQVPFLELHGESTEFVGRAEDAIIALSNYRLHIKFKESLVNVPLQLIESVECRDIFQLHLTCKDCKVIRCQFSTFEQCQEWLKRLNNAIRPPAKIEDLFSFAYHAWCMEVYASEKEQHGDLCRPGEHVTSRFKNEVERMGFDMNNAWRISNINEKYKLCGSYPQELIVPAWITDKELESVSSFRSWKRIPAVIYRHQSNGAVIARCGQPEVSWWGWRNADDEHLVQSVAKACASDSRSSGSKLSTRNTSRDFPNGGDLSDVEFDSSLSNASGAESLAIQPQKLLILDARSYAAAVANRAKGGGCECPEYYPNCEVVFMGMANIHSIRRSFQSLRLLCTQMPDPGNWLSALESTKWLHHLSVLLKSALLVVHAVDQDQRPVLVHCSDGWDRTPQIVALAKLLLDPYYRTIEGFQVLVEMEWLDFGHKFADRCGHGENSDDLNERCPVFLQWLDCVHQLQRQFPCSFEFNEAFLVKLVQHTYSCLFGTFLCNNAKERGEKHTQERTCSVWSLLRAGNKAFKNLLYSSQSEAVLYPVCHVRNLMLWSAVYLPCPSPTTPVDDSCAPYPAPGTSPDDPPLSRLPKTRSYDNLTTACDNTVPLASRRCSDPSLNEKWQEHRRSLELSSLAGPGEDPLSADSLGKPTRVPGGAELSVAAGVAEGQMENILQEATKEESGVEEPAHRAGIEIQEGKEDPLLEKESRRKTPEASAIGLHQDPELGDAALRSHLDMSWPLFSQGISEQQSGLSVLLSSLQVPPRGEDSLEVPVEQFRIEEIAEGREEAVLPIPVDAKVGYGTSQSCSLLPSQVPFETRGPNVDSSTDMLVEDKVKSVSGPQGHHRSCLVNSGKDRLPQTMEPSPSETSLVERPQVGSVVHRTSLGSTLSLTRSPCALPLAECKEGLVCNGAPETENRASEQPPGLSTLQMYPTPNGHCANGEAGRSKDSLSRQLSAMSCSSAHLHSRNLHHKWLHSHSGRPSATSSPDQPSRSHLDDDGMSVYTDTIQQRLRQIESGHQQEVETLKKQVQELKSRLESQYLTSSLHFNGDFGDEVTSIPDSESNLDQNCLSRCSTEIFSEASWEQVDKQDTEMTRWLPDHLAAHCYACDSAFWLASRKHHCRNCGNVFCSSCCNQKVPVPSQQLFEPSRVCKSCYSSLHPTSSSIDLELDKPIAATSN
Sequence of UniProt Q9BT17 (Q9BT17 whole entry): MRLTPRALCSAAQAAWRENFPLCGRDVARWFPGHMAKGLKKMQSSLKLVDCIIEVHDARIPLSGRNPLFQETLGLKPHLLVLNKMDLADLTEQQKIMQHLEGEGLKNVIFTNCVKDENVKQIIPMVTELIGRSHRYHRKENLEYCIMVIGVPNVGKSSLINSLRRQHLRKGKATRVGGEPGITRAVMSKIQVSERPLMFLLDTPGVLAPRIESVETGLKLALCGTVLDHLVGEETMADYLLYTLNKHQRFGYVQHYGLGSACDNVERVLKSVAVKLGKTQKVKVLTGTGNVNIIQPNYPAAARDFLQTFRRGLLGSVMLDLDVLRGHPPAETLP
Sequence of UniProt Q86UE4 (Q86UE4 whole entry): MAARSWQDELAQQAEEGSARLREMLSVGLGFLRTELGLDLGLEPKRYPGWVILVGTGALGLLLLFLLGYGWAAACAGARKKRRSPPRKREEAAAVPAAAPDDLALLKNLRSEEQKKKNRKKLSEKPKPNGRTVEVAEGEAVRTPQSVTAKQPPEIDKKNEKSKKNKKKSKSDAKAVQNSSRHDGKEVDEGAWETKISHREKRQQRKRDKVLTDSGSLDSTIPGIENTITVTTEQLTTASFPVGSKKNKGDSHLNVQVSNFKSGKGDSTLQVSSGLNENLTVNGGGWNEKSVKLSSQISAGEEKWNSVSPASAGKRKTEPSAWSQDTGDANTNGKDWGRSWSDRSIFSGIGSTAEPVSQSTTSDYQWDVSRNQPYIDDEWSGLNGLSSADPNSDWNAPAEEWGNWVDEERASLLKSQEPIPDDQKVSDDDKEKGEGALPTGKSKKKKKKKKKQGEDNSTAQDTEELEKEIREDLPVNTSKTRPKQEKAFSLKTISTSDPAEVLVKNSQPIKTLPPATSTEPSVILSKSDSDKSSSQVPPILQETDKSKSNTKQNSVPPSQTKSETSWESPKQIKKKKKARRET
Sequence of UniProt Q13126 (Q13126 whole entry): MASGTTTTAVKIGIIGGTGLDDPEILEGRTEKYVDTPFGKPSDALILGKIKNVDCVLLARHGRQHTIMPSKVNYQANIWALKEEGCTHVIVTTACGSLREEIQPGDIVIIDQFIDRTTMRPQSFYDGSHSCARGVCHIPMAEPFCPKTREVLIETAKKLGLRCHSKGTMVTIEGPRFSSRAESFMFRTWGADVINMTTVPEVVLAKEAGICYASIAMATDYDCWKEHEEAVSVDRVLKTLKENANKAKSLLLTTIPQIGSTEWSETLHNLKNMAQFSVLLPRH
Sequence of UniProt Q9Y4B5 (Q9Y4B5 whole entry): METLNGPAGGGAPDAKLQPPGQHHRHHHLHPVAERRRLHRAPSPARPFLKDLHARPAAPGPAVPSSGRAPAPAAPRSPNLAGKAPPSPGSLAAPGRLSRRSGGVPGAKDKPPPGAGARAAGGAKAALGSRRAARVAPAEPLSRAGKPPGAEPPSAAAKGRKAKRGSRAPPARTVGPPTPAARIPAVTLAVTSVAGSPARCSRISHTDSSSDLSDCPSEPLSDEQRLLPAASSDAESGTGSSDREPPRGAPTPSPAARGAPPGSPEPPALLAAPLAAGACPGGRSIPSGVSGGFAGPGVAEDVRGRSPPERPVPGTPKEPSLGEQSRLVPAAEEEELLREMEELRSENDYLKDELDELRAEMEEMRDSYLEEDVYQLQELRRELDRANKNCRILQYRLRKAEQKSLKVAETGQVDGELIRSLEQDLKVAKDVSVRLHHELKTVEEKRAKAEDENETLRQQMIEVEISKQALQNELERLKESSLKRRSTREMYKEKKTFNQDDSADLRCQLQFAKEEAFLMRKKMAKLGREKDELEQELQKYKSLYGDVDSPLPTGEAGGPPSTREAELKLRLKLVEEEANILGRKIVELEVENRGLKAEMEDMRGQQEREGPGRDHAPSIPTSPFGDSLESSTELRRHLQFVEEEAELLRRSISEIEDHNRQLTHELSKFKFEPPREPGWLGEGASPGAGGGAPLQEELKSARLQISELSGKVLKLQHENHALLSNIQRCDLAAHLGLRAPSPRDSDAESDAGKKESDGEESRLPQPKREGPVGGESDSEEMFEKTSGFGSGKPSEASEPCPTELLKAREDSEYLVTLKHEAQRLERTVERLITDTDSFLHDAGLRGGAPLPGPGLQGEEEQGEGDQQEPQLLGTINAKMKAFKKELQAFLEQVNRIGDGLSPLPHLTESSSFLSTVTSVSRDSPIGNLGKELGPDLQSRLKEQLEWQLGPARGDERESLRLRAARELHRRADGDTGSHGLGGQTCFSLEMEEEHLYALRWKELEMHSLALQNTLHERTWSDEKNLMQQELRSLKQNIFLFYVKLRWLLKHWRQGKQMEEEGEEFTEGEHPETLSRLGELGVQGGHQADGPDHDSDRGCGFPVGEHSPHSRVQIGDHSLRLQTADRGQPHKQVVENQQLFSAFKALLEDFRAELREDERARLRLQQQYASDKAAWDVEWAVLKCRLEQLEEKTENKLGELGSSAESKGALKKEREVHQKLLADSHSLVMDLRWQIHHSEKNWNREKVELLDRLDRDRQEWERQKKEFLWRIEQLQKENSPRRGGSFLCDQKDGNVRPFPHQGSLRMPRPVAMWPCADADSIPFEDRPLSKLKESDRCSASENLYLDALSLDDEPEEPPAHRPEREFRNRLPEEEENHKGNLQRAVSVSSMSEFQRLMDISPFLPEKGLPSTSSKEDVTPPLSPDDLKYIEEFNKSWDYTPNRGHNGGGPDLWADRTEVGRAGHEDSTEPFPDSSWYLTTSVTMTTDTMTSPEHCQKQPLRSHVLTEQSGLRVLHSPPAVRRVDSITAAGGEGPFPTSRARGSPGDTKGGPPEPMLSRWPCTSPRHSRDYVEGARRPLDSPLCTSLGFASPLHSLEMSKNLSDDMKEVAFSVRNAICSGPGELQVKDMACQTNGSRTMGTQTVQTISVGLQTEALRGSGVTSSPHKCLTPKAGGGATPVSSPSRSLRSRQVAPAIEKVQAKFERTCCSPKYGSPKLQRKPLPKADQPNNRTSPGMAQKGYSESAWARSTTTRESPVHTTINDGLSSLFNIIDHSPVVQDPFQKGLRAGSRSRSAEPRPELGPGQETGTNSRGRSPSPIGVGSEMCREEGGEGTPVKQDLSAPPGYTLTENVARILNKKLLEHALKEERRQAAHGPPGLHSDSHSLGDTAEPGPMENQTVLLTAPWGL
Sequence of UniProt P58546 (P58546 whole entry): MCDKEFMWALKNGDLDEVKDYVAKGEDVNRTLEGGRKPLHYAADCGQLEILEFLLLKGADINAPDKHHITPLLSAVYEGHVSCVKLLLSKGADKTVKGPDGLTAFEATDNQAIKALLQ

Target | thermal stability z-score (lipoamide; [1]) | thermal stability z-score (lipoamide; arsenate co-treatment: none) | thermal stability z-score (potassium arsenate)
MRPS15 (UniProt P82914) | 0.673 | 0.571 | 0.555
MRPS16 (UniProt Q9Y3D3) | -0.314 | -0.201 | 0.0354
MRPS18A (UniProt Q9NVS2) | -0.573 | -0.402 | 0.196
MRPS18B (UniProt Q9Y676) | 0.319 | 0.013 | 0.102
MRPS21 (UniProt P82921) | -0.28 | -0.78 | 1.03
MRPS22 (UniProt P82650) | -0.329 | 0.295 | -0.109
MRPS23 (UniProt Q9Y3D9) | -0.268 | 0.352 | 0.342
MRPS24 (UniProt Q96EL2) | -0.239 | -0.0199 | -0.497
MRPS25 (UniProt P82663) | 0.0295 | 0.0583 | 0.445
MRPS26 (UniProt Q9BYN8) | 0.609 | 0.375 | 0.123
MRPS27 (UniProt Q92552) | -0.204 | -0.193 | 0.189
MRPS28 (UniProt Q9Y2Q9) | 0.366 | 0.352 | -0.842
MRPS30 (UniProt Q9NP92) | -0.185 | -0.539 | -0.147
MRPS31 (UniProt Q92665) | -0.961 | 0.411 | -0.0848
MRPS33 (UniProt Q9Y291) | 0.0616 | 0.0342 | 0.00906
MRPS34 (UniProt P82930) | -0.835 | -0.044 | 0.427
MRPS35 (UniProt P82673) | -0.663 | -0.362 | -0.0913
MRPS36 (UniProt P82909) | 0.32 | 0.0105 | 0.55
MRRF (UniProt Q96E11) | 0.298 | 0.823 | 0.97
MRS2 (UniProt Q9HD23) | 0.937 | -0.861 | -1.27
MRTO4 (UniProt Q9UKD2) | 0.246 | 0.308 | 0.036
MSH2 (UniProt P43246) | -0.271 | -0.178 | -0.565
MSH3 (UniProt P20585) | -0.0133 | 0.43 | -0.95
MSH6 (UniProt P52701) | 0.0377 | 0.218 | -0.142

Target | thermal stability z-score (lipoamide; [1]) | thermal stability z-score (lipoamide; arsenate co-treatment: none) | thermal stability z-score (potassium arsenate)
MSI2 (UniProt Q96DH6) | 0.43 | 0.136 | 0.082
MSLN (UniProt Q13421) | -0.583 | -0.696 | -2.44
MSMO1 (UniProt Q15800) | -1.28 | -1.47 | 0.343
MSN (UniProt P26038) | 0.727 | 0.377 | -0.891
MSRB3 (UniProt Q8IXL7) | 0.866 | 0.887 | 0.269
MST1R (UniProt Q04912) | -0.0878 | 0.0193 | -0.0232
MSTO1 (UniProt Q9BUK6) | 0.101 | -0.0527 | -0.742
MT (UniProt Q8IVS2) | -0.281 | -0.555 | -0.404
MTA1 (UniProt Q13330) | 0.06 | 0.414 | -1.05
MTA2 (UniProt O94776) | 0.669 | 0.591 | -0.245
MTA3 (UniProt Q9BTC8) | 0.106 | 0.129 | -0.13
MTAP (UniProt Q13126) | 0.145 | -1.41 | -1.77
MTCH1 (UniProt Q9NZJ7) | -0.143 | -0.0871 | 0.404
MTCH2 (UniProt Q9Y6C9) | -0.0451 | 0.12 | 0.688
MTCL1 (UniProt Q9Y4B5) | -0.242 | 0.0775 | -1.54
MTDH (UniProt Q86UE4) | -0.531 | -0.503 | -1.35
MTERF3 (UniProt Q96E29) | -0.371 | 0.034 | 0.564
MTERF4 (UniProt Q7Z6M4) | -0.0828 | 0.0195 | -0.0404
MTFR1 (UniProt Q15390) | -0.301 | 0.52 | 0.165
MTG1 (UniProt Q9BT17) | 0.0673 | 0.0916 | 0.195
MTG2 (UniProt Q9H4K7) | -0.0209 | 0.00401 | 0.127
MTHFD1 (UniProt P11586) | 0.565 | 0.406 | -0.927
MTHFD1L (UniProt Q6UB35) | -0.786 | -0.399 | -0.123
MTHFD2 (UniProt P13995) | -1.43 | 0.0012 | 0.474

Target | thermal stability z-score (lipoamide; [1]) | thermal stability z-score (lipoamide; arsenate co-treatment: none) | thermal stability z-score (potassium arsenate)
MTHFS (UniProt P49914) | -0.574 | 0.036 | -0.488
MTIF2 (UniProt P46199) | -0.77 | -1.59 | -0.789
MTIF3 (UniProt Q9H2K0) | 0.621 | 0.197 | 0.55
MTM1 (UniProt Q13496) | 0.198 | 0.0354 | -0.804
MTMR1 (UniProt Q13613) | -0.545 | -0.803 | -1.27
MTMR2 (UniProt Q13614) | 0.88 | -0.108 | -0.555
MTMR3 (UniProt Q13615) | -0.301 | -0.594 | -1.04
MTMR6 (UniProt Q9Y217) | 0.0538 | 0.0997 | -0.39
MTMR9 (UniProt Q96QG7) | -0.0303 | 1.35 | -0.12
MTMR10 (UniProt Q9NXD2) | -0.108 | 0.0107 | -0.188
MTMR12 (UniProt Q9C0I1) | 0.611 | -0.0556 | -0.0618
MTMR14 (UniProt Q8NCE2) | -1.39 | -0.656 | -0.829
MTO1 (UniProt Q9Y2Z2) | 0.544 | 0.263 | 1.97
MTOR (UniProt P42345) | 0.00431 | 0.137 | 0.0121
MTPAP (UniProt Q9NVV4) | 0.621 | 0.936 | -0.28
MTPN (UniProt P58546) | 0.382 | 0.145 | -0.432
MTR (UniProt Q99707) | -0.354 | -0.00141 | 0.289
MTRF1L (UniProt Q9UGC7) | -1.57 | -0.343 | 0.646
MTRR (UniProt Q9UBK8) | 0.00117 | -0.531 | 0.111
MTSS1L (UniProt Q765P7) | 0.179 | 0.0525 | -0.228
MTUS1 (UniProt Q9ULD2) | -0.0967 | 0.692 | 0.0626
MTX1 (UniProt Q13505) | -0.275 | 0.061 | 0.421
MTX2 (UniProt O75431) | -0.388 | -0.267 | 0.0221

— the supplement of paper PMC12463676, “Small-molecule dissolution of stress granules by redox modulation benefits ALS models” (Nature Chemical Biology, 2025)
